Data set [1] deals with carcinogenesis caused by a two-stage carcinogenesis on skin. In words: Two-stage (DMBA/TPA) carcinogenesis on skin of mice. Type of data set: in vivo, mice of ICR strain. The settings on record: 2.5 mg per mouse. On the procedure:
Hair on the back of mice of ICR strain (purchased from Nippon SLC; seven weeks age; female) was shaved and DMBA (dimethylbenzanthracene) as an initiator in a form of a solution in acetone was applied thereto at the dose of 50 μg/mouse.
Thus, FIG. 5 is a graph showing the anti-carcinogenic action of the cyclopentenone in which ordinate is a carcinogenic rate while abscissa is time (weeks). In the graph, open triangles, black triangles and open circles stand for a group treated with 2.5 mg of the cyclopentenone per mouse (12 mice in total), a group treated with 0.8 mg of the cyclopentenone per mouse (11 mice in total) and a control group (12 mice in total), respectively.

Data set [2] relates to CEM-SS cells infected by HIV-1IIIB (CEM-3B). The data set can be described thus: Survival rate of HIV-infected T cells, CEM-3B. Type of data set: cell-based, human. The settings on record: three days. On the procedure:
(§1) The cyclopentenone (1-5 μM) was added to CEM-SS cells infected by HIV-1IIIB (abbreviated as CEM-3B) or to H9 cells infected by HIV-1IIIB (abbreviated as H9-3B) and incubated for three days. In both cells, 90% or more of the cells were infected by HIV-1IIIB. Numbers of living and dead cells were counted and the survival rate of the cells was calculated therefrom.
Thus, FIG. 3 and FIG. 4 are the graphs showing the relation between the concentration of the cyclopentenone added and the survival rate of the cells in which abscissa is the concentration (μM) of the cyclopentenone added While ordinate is the survival rate (%) of the cells after incubating for three days. FIG. 3 is the result when CEM-3B were used while FIG. 4 is the result when H9-3B were used.

Data set [3] deals with HIV-1IIIB. In words: p24 antigen in supernatant liquid of CEM-3B culture. To be noted: three days. It is filed as cell-based. The procedure: as §1
Concentration of the p24 antigen contained in the supernatant liquid of the culture after incubation for three days in the case of Example 5-(2) was measured. The result was that the concentration of p24 decreased corresponding to the centration of the cyclopentenone added thereto whereupon the anti-HIV action was noted. In Table 10, the figures in parentheses are the ratio of each of the supernatant liquid of the cell cultures (when none of the cyclopentenone was added) to the concentration of p24 expressed in terms of %.

Data set [4] deals with H9 cells. In words: Survival rate of human T cells, H9. It is filed as cell-based. The settings on record: three days.
Data set [5] deals with Ad5 dlX [an adenovirus]. In words: Amount of viral DNA in HeLa cells treated before infection with adenovirus. It is filed as cell-based. To be noted: 5 μM or more. The procedure:
(3) Viral DNA was extracted according to a method mentioned in “Protocols for Experiments of Virus” (pages 24-25; published by Medical View) from the HeLa cells which were treated with the cyclopentenone and infected by adenovirus followed by incubation by the same manner as in Example 2-(2).
Thus, cells infected by virus were washed with a saline solution buffered by phosphoric acid, suspended in 1 ml of aqueous solution of 0.6% sodium laurylsulfate (SDS) and 10 mM EDTA and 3.0 ml of 5M aqueous solution of sodium chloride was added thereto. The mixture was allowed to stand at 0° C. for one hour and centrifuged and 3 ml of ethanol was added to the resulting supernatant liquid followed by mixing. The precipitate obtained by centrifugal separation was dissolved in 0.2 ml of TE buffer (10 mM Tris-HCl of pH 8.0 and 1 mM EDTA), then 2 μl of 10% SDS and 4 μl of 10 mg/ml proteinase K (manufactured by Takara Shuzo) were added thereto and the mixture was kept at 37° C. for one hours. This was extracted with a mixture of equal amounts of phenol and chloroform twice, 20 μl of 3M sodium acetate and 400 μl of ethanol were added to the aqueous layer, the mixture was centrifuged and the precipitate was dissolved in 50 μl of the TE buffer to give a DNA solution. […]

Data set [6] concerns adenovirus of type 5 (Adenoid 75; ATCC VR-5). The data set can be described thus: Adenovirus hexon protein in HeLa cells, cyclopentenone added after infection. The settings on record: 10 μM or more, 20 hours. It is filed as cell-based. On the procedure:
(4) After HeLa cells were incubated by the same manner as in Example 2-(2), DMEM containing 5% of fetal bovine serum which contained adenovirus of type 5 (Adenoid 75; ATCC VR-5) was added to the cells without addition of the cyclopentenone whereby the cells were infected by that. […] After the incubation, detection of hexon proteins of adenovirus was conducted by the same manner as in Example 2-(2).

Data set [7] relates to adenovirus type 5 (Adenoid 75; ATCC VR-5). The data set can be described thus: Adenovirus hexon protein in HeLa cells, cyclopentenone before and after infection. It is filed as cell-based. To be noted: 10 μM or more. The procedure: (5) HeLa cells were incubated by the same manner as in Example 2-(2) and treated with the cyclopentenone. After that, the cells were infected by the adenovirus type 5 (Adenoid 75; ATCC VR-5) by the same manner as in Example 2-(4) and incubated in a medium to which the cyclopentenone was added. After the incubation, detection of the hexon proteins of adenovirus was conducted by the same manner as in Example 2-(2).

The test system of data set [8] is NIH3T3/E7-2. The data set can be described thus: Colony formation of HPV16 type E7-transformed cell strain NIH3T3/E7-2. Type of data set: cell-based. The settings on record: 5 μM. The procedure: Each incubation was conducted in three runs.
The nature of data set [9]: Single oral administration toxicity in rats. The settings on record: single oral administration of 100 mg/kg. Type of data set: in vivo.
The nature of data set [10]: Anti-inflammatory test of TPA in conchae of mice. Type of data set: in vivo. To be noted: 2.5 mg (per mouse) applied to concha of the mouse.
The subject of data set [11] is adenovirus type 5 (Adenoid 75; ATCC VR-5). In words: Amount of viral DNA in HeLa cells, cyclopentenone before and after infection. Type of data set: cell-based. The settings on record: 5 μM or more. The procedure:
(6) Amount of the viral DNA was measured by the same manner as in Example 2-(3) from the HeLa cells which were treated with the cyclopentenone infected by the adenovirus type 5 (Adenoid 75; ATCC VR-5) followed by incubating by the same manner as in Example 2-(5).

As to `O=C1C=CC(O)C1O` (stereo not shown) [cyclopentenone, 4,5-dihydroxy-2-cyclopenten-1-one], the carcinogenic rate in data set [1] (applied one hour before each TPA, within 15 weeks (1 mouse out of 12)) was 8.3%; in data set [1] (within and after 19 weeks (3 mice out of 12)), 25%. The “survival rate of the cells” value in data set [2] (3 μM) is on record as “significantly decreased”; in data set [2] (5 μM), “further decreased”; in data set [4], “no significant decrease”. For the same molecule, the “Concentration of p24 in Supernatant Liquid of the cell cultures” value turned out to be 232 ng/mL in data set [3] (1 μM), 176 ng/mL in [3] (3 μM) and 175 ng/mL in data set [3] (5 μM). Besides, the “ratio to the concentration of p24 when none of the cyclopentenone was added” value in [3] (1 μM) was 83%; in data set [3] (3 μM) it was 63%; in data set [3] (5 μM), 63%. Further, in data set [5], the “amount of viral DNA compared with the control” value is recorded as “apparent decrease”. The “amount of hexon proteins compared with the control” value in data set [6] is on record as “apparent decrease”. For the same molecule, the “amount of the hexon proteins compared with the control” value in data set [7] is “apparent decrease”. In addition, in [8], the “sensitivity of the cells into which E7 was introduced compared with the control cells” value is recorded as “high sensitivity”. Also, the “Numbers (average ± SD) of the Colonies” value in [8] (nine days, NIH3T3/E7-2, three runs) came to 22.3 ± 3.5. In addition, in data set [9], the dead cases entry was “no dead case”. In data set [10], the anti-inflammatory activity result is on record as “no anti-inflammatory activity”. Moreover, in data set [11], the “amount of the viral DNA compared with the control” value is “apparent decrease”.

The record behind these values is patent US6518317B1, “Antiviral agents” (priority 1997, dated 2003).
